Measurements from the NIST ThermoML archive (doi:10.1016/j.jct.2003.09.005).
Several values for one entry are separate records, joined by “and”; a condition that tells them apart may be missing. Equal entries are not always repeated. ± gives the expanded uncertainty stated by the source.

Legend:
[1] = 298.15 K; 101.33 kPa; Liquid
[2] = xn = mol fraction of the nth substance listed; conditions: 298.15 K, 101.33 kPa, Liquid, Vibrating tube method

| SMILES | mass density [1] | also measured |
| --- | --- | --- |
| COCCOC [1,2-dimethoxyethane] | 861.43 ± 0.56 kg/m3 | – |
| C1CCOC1 [tetrahydrofuran] | 882.01 ± 0.54 kg/m3 | – |
| O=C1OCCO1 [ethylene carbonate] + COCCOC | – | mass density ([2]; x2 = 0.4158): 1099.62 ± 0.57 kg/m3 and 1099.78 ± 0.56 kg/m3 and 1100.01 ± 0.56 kg/m3 |
| CCOC(C)=O [ethyl acetate] | 894.51 ± 0.54 kg/m3 | – |
| O=C1OCCO1 [ethylene carbonate] + CC#N | – | mass density ([2]; x2 = 0.5533): 1070.54 ± 0.55 kg/m3 and 1071.16 ± 0.54 kg/m3 |
| O=C1OCCO1 [ethylene carbonate] + CCOC(C)=O | – | mass density ([2]; x2 = 0.4577): 1118.46 ± 0.58 kg/m3 [middle of 4 runs] |
| O=C1OCCO1 [ethylene carbonate] + C1CCOC1 | – | mass density ([2]; x2 = 0.4631): 1110.32 ± 0.57 kg/m3 and 1109.98 ± 0.57 kg/m3 and 1109.85 ± 0.57 kg/m3 |
| CC#N [acetonitrile] | 776.69 ± 0.62 kg/m3 | – |
